This is an account of results in US9890166B2, “Imidazopyrrolidine derivatives and their use in the treatment of disease” (NOVARTIS AG, priority 2013, dated 2018).

Structures are written as SMILES. A value given as a limit tells only on which side of the number the result lay.

One assay concerns the target BRD4 (His-Brd4(44-477)) (Homo sapiens (Human), UniProt O60885). The assay is described as follows: TR-FRET in-vitro binding assay for BRD4. The settings on record: single determination or n ≧ 2 independent determinations, read-out: Biochemical IC50 BRD4. In outline: (§1)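 Compounds were serially diluted over eight concentrations and added to wells. TR-FRET signal was then measured.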
(TR-FRET usually uses a lanthanide donor and a delayed reading to cut background.)

The target in a further assay is BRD2 (His-Brd2(60-472)) (Homo sapiens (Human), UniProt P25440). The assay can be described thus: TR-FRET in-vitro binding assay for BRD2. The settings on record: single determination or n ≧ 2 independent determinations, read-out: Biochemical IC50 BRD2. The essentials: as §1
BRD2 (His-Brd2(60-472)), sequence (P25440 60-472): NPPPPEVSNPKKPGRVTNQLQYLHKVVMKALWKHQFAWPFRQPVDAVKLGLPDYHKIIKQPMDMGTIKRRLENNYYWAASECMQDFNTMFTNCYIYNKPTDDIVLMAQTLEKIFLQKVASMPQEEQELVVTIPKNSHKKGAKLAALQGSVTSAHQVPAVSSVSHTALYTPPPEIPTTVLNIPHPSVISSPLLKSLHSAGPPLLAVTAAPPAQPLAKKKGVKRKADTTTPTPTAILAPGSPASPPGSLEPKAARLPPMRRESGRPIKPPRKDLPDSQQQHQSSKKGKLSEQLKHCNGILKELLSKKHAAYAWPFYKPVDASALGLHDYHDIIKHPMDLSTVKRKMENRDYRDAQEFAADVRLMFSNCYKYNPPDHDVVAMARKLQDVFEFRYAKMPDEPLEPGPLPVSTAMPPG
The target in another assay is BRD3 (His-Brd3(20-477)) (Homo sapiens (Human), UniProt Q15059). The assay is described as follows: TR-FRET in-vitro binding assay for BRD3. The settings on record: single determination or n ≧ 2 independent determinations, read-out: Biochemical IC50 BRD3. The essentials:
as §1

Assay [1] addresses CREBBP bromodomain (His-CREBBP(1081-1197)) (Homo sapiens (Human), UniProt Q92793). The assay can be described thus: AlphaScreen in-vitro binding assay for CREBBP. The settings on record: single determination or n ≧ 2 independent determinations, read-out: Biochemical IC50 CREBBP. In outline: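 Reactions at 30 °C for 35 min, then Ni-chelate acceptor and streptavidin donor beads in HEPES pH 7.5, NaCl, Tween20, BSA, 60 min at room temperature. Eight-point compound series; IC50 by non-linear regression of percent inhibition.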

Another assay concerns THP-1 cells. The assay is described as follows: Cell growth inhibition assay (CellTiter-Glo), THP-1.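 For all read-outs here: viability read as cellular ATP luminescence after 4 days, 3-fold dilution series from 10 µM, DMSO vehicle-treated cells taken as 100%, cell-free medium wells as −100%.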 The settings on record: for GI50: Homo sapiens, THP-1, read-out: THP-1 GI50; for THP-1 TGI: THP-1 cells, total growth inhibition, CellTiter-Glo.
The next assay relates to K-562 cells. The assay can be described thus: Cell growth inhibition assay (CellTiter-Glo), K-562.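 For all read-outs here: cellular ATP measured by luminescence after 4 days of exposure, 3-fold dilution series from 10 µM, DMSO vehicle-treated cells define 100%, cell-free medium wells −100%.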 The settings on record: for GI50: Homo sapiens, K562, read-out: K-562 GI50; for K-562 TGI: K-562 cells, total growth inhibition, CellTiter-Glo.
A further assay has as its system MV-4-11 cells. The assay is described as follows: Cell growth inhibition assay (CellTiter-Glo), MV-4-11.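 For all read-outs here: cellular ATP luminescence after 4 days, 3-fold dilution series from 10 µM top dose, vehicle (0.1% DMSO) set to 100%, cell-free medium set to −100%, day 0 corrected.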 The settings on record: for GI50: Homo sapiens, MV4-11, read-out: MV-4-11 GI50; for MV-4-11 TGI: MV-4-11 cells, total growth inhibition, CellTiter-Glo. In general terms: Cellular ATP, detected with luciferase, serves as a proxy for viable cell number.

CREBBP bromodomain (His-CREBBP(1081-1197)), sequence (Q92793 1081-1197): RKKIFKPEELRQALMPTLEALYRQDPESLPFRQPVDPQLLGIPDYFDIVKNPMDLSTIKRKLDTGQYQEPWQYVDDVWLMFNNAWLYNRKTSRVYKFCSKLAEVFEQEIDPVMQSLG
BRD3 (His-Brd3(20-477)), sequence (Q15059 20-477): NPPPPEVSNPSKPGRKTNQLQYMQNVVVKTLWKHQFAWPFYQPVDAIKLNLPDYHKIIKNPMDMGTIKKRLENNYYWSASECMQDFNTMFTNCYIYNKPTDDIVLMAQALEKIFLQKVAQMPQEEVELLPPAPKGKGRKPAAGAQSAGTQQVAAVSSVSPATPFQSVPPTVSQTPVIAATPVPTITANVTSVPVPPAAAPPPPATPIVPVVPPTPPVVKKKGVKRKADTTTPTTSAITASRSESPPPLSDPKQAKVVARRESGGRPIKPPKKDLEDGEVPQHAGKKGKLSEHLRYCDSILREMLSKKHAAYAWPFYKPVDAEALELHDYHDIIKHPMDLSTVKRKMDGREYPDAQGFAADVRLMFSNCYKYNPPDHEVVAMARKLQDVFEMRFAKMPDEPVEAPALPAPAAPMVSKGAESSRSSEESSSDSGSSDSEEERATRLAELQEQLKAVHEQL

In the case of `Cc1cc(N2C(=O)c3nc(C4CCOCC4)n(C(C)C)c3C2c2ccc(Cl)cc2)cc2c1nnn2C` (centres unmarked) [Example 80, 6-(4-chlorophenyl)-5-(1,4-dimethyl-1H-benzo[d][1,2,3]triazol-6-yl)-1-isopropyl-2-(tetrahydro-2H-pyran-4-yl)-5,6-dihydropyrrolo[3,4-d]imidazol-4(1H)-one], the IC50 – broadly, the point on the concentration scale where inhibition reaches its midpoint – at BRD4 (His-Brd4(44-477)) stood at 13 nM; on BRD2 (His-Brd2(60-472)), 17 nM; at BRD3 (His-Brd3(20-477)) it was 12 nM; in assay [1], 1.45 µM. In addition, the results for the GI50 in the assay with THP-1 cells, in the assay with K-562 cells and with MV-4-11 cells were 5.53 nM, 28.8 nM and 4.14 nM, respectively. In addition, the “THP-1 TGI” value in the assay on THP-1 cells came to 0.0154 µM. Moreover, the “K-562 TGI” value with K-562 cells was greater than 10 µM. In addition, in the assay with MV-4-11 cells, the “MV-4-11 TGI” value was 0.00945 µM.
With `Cc1cc(N2C(=O)c3nc(C4CCN(CC(C)(C)C)CC4)n(C(C)C)c3C2c2ccc(Cl)cc2)cn2c(C)nnc12` (centres unmarked) [Example 104, 6-(4-chlorophenyl)-5-(3,8-dimethyl-[1,2,4]triazolo[4,3-a]pyridin-6-yl)-1-isopropyl-2-(1-neopentylpiperidin-4-yl)-5,6-dihydropyrrolo[3,4-d]imidazol-4(1H)-one], the IC50 at BRD4 (His-Brd4(44-477)) came to 24.5 nM; at BRD2 (His-Brd2(60-472)), 41 nM; at BRD3 (His-Brd3(20-477)) it was 33 nM; in assay [1], 2.8 µM. Moreover, the 50% growth inhibitory concentration (GI50) (in general, the concentration at which growth is held to half of that of the control) in the assay on THP-1 cells was found to be 21.2 nM; in the assay on K-562 cells, 53.4 nM; in the assay on MV-4-11 cells, 8.21 nM. Further, the “THP-1 TGI” value with THP-1 cells is 0.05395 µM. The “K-562 TGI” value in the assay on K-562 cells is greater than 10 µM. Further, in the assay on MV-4-11 cells, the “MV-4-11 TGI” value is 0.0187 µM.
Consider `Cc1cc(N2C(=O)c3nc(C4=CCCN(C)C4)n(C(C)C)c3[C@H]2c2ccc(Cl)cc2)cn2c(C)nnc12` [Example 85], for which the half-inhibitory concentration (IC50) on BRD4 (His-Brd4(44-477)) came to 15 nM; on BRD2 (His-Brd2(60-472)), 29 nM; at BRD3 (His-Brd3(20-477)), 20 nM; in assay [1] it was 3.65 µM. Besides, the GI50 in the assay on THP-1 cells was 138 nM; with K-562 cells, 277 nM; in the assay with MV-4-11 cells it was 16.3 nM. Further, the “THP-1 TGI” value in the assay on THP-1 cells came out at 0.37 µM. Besides, the “K-562 TGI” value in the assay on K-562 cells is greater than 10 µM. In addition, the “MV-4-11 TGI” value in the assay with MV-4-11 cells amounted to 0.0325 µM.
For the compound `COc1ncccc1-c1nc2c([nH]1)[C@@H](c1ccc(Cl)cc1)N(c1cc(C)c3nnc(C(F)F)n3c1)C2=O` [Example 153, (R)-6-(4-chlorophenyl)-5-(3-(difluoromethyl)-8-methyl-[1,2,4]triazolo[4,3-a]pyridin-6-yl)-2-(2-methoxypyridin-3-yl)-5,6-dihydropyrrolo[3,4-d]imidazol-4(1H)-one], the IC50 was 13 nM at BRD4 (His-Brd4(44-477)), 25 nM at BRD2 (His-Brd2(60-472)), 23 nM at BRD3 (His-Brd3(20-477)) and 28.9 µM in assay [1]. The GI50 came to 18.4 nM in the assay on THP-1 cells, 95 nM with K-562 cells and 25.6 nM in the assay with MV-4-11 cells. For the same compound, in the assay on THP-1 cells, the “THP-1 TGI” value was determined as 0.0443 µM. For the same compound, in the assay on K-562 cells, the “K-562 TGI” value was greater than 10 µM. Also, the “MV-4-11 TGI” value with MV-4-11 cells amounted to 0.0386 µM.
As to `Cc1cc(N2C(=O)c3nc(C4=CC(C)(C)NC(C)(C)C4)n(C(C)C)c3C2c2ccc(Cl)cc2)cn2c(C)nnc12` (centres unmarked) [Example 51, 6-(4-Chlorophenyl)-5-(3,8-dimethyl-[1,2,4]triazolo[4,3-a]pyridin-6-yl)-1-isopropyl-2-(2,2,6,6-tetramethyl-1,2,3,6-tetrahydropyridin-4-yl)-5,6-dihydropyrrolo[3,4-d]imidazol-4(1H)-one], the IC50 on BRD4 (His-Brd4(44-477)) was 19.5 nM; at BRD2 (His-Brd2(60-472)), 40 nM; at BRD3 (His-Brd3(20-477)), 25 nM; in assay [1], 6.4 µM. The GI50 in the assay with THP-1 cells was 212 nM; in the assay with K-562 cells, 439 nM; with MV-4-11 cells it was 22.4 nM. Besides, the “THP-1 TGI” value in the assay on THP-1 cells was 0.612 µM. Also, the “K-562 TGI” value in the assay with K-562 cells is greater than 10 µM. The “MV-4-11 TGI” value with MV-4-11 cells stood at 0.0479 µM.
